28 molecules from patent publication US11332459B2 (TEIJIN PHARMA LIMITED, priority 2017, dated 2022) can be followed below.

Structures can show the parent of a compound that is named as a salt.

This assay has as its target T1, human TRPC6 (Homo sapiens, UniProt Q9Y210).
T1 construct: expressed in transfected cells
T1 sequence (Q9Y210 1-931): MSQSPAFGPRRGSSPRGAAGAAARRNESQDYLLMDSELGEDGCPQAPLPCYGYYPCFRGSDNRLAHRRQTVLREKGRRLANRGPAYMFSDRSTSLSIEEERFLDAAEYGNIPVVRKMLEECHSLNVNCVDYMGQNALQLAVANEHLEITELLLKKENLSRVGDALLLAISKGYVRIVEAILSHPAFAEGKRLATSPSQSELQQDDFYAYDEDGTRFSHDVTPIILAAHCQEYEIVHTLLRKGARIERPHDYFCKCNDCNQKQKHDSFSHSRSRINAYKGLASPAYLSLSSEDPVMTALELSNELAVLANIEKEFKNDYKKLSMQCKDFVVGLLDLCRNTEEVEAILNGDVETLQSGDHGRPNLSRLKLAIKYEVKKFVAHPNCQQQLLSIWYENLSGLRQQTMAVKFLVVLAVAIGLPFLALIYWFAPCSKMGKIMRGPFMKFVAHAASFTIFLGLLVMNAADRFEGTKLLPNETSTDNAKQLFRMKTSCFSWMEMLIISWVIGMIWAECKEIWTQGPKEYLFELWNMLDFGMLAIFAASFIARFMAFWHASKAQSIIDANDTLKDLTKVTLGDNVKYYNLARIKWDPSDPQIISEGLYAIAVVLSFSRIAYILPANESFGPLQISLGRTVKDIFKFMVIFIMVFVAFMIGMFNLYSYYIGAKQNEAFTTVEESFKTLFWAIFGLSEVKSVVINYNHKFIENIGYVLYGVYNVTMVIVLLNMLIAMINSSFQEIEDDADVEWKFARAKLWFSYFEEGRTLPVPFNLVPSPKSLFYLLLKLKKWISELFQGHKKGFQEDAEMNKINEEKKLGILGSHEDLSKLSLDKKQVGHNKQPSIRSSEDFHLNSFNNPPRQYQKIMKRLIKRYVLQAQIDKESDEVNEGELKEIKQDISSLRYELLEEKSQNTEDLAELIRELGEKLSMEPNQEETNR
In words: TRPC6 calcium flux assay (FLIPR, OAG-stimulated calcium influx). It counts as cell-based. The note with it: HEK293 cells stably transfected with human TRPC6, read-out: hTRPC6 Potency. The gist of the method: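 HEK293 cells stably expressing human TRPC6, loaded with calcium dye 90–120 min at RT, then given compound for 25 min before OAG (50 uM final, 0.5% DMSO) in HEPES buffer pH 7.2 with 2 mM CaCl2. Background-subtracted FLIPR peak over 180 s normalized to OAG vs buffer; IC50 from dose plot.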
For orientation: Calcium flux is commonly read through the fluorescence of an indicator in the cells.
In the case of `N[C@@H]1CN(c2nc3ccccc3n2Cc2ncc(C(F)(F)F)cn2)CC[C@H]1F` [Example 193, (3R,4R)-4-fluoro-1-(1-((5-(trifluoromethyl)pyrimidin-2-yl)methyl)-1H-benzo[d]imidazol-2-yl)piperidin-3-amine], the IC50 stood at 48.5 nM.

On to `COc1cnc(Cn2c(N3CC[C@@H](F)[C@H](N)C3)nc3ccccc32)nc1` [Example 194, (3R,4R)-4-fluoro-1-(1-((5-methoxypyrimidin-2-yl)methyl)-1H-benzo[d]imidazol-2-yl)piperidin-3-amine], for which the IC50 amounted to 14.2 nM.

For the molecule `N[C@@H]1CN(c2nc3ccccc3n2Cc2ncc(Cl)cn2)CC[C@H]1F` [Example 195, (3R,4R)-1-(1-((5-chloropyrimidin-2-yl)methyl)-1H-benzo[d]imidazol-2-yl)-4-fluoropiperidin-3-amine], the IC50 turned out to be 0.664 nM.

On to `N#Cc1ccc2nc(N3CC[C@@H](F)[C@H](N)C3)n(Cc3ncc(F)cn3)c2c1` [Example 196, 2-((3R,4R)-3-amino-4-fluoropiperidin-1-yl)-1-((5-fluoropyrimidin-2-yl)methyl)-1H-benzo[d]imidazole-6-carbonitrile], for which the IC50 turned out to be 6.47 nM.

For the molecule `N#Cc1ccc2c(c1)nc(N1CC[C@@H](F)[C@H](N)C1)n2Cc1ncc(F)cn1` [Example 197, 2-((3R,4R)-3-amino-4-fluoropiperidin-1-yl)-1-((5-fluoropyrimidin-2-yl)methyl)-1H-benzo[d]imidazole-5-carbonitrile], the IC50 was found to be 256 nM.

`N#Cc1ccc2c(c1)nc(N1CC[C@@H](F)[C@H](N)C1)n2Cc1ncc(Cl)cn1` [Example 198]: the IC50 stood at 71.2 nM.

Regarding `N#Cc1cnc(Cn2c(N3CCC(F)(F)[C@H](N)C3)nc3ccccc32)cn1` [Example 199], the IC50 came to 28.1 nM.

For the molecule `N#Cc1ccc2nc(N3CC[C@@H](F)[C@H](N)C3)n(Cc3ncc(Br)cn3)c2c1` [Example 200, 2-((3R,4R)-3-amino-4-fluoropiperidin-1-yl)-1-((5-bromopyrimidin-2-yl)methyl)-1H-benzo[d]imidazole-6-carbonitrile], the IC50 was determined as 2.18 nM.

On to `N#Cc1ccc2c(c1)nc(N1CC[C@@H](F)[C@H](N)C1)n2Cc1ncc(Br)cn1` [Example 201, 2-((3R,4R)-3-amino-4-fluoropiperidin-1-yl)-1-((5-bromopyrimidin-2-yl)methyl)-1H-benzo[d]imidazole-5-carbonitrile], for which the IC50 is 43.9 nM.

In the case of `N#Cc1cnc(Cn2c(N3CC[C@@H](F)[C@H](N)C3)nc3ccccc32)cn1` [Example 202, 5-((2-((3R,4R)-3-amino-4-fluoropiperidin-1-yl)-1H-benzo[d]imidazol-1-yl)methyl)pyrazine-2-carbonitrile], the IC50 amounted to 2.14 nM.

Turning to `N#Cc1ccc2nc(N3CC[C@H](F)[C@H](N)C3)n(Cc3ncc(Cl)cn3)c2c1` [Example 203, 2-((3R,4S)-3-amino-4-fluoropiperidin-1-yl)-1-((5-chloropyrimidin-2-yl)methyl)-1H-benzo[d]imidazole-6-carbonitrile], the IC50 is 598 nM.

In the case of `N#Cc1ccc2c(c1)nc(N1CC[C@H](F)[C@H](N)C1)n2Cc1ncc(Cl)cn1` [Example 204, 2-((3R,4S)-3-amino-4-fluoropiperidin-1-yl)-1-((5-chloropyrimidin-2-yl)methyl)-1H-benzo[d]imidazole-5-carbonitrile], the IC50 was determined as 4.92 nM.

`N[C@@H]1CN(c2nc3ccc(F)cc3n2Cc2ncc(Cl)cn2)CC[C@H]1O` [Example 205, (3R,4R)-3-amino-1-(1-((5-chloropyrimidin-2-yl)methyl)-6-fluoro-1H-benzo[d]imidazol-2-yl)piperidin-4-ol]: the IC50 is 3 nM.

For the molecule `N[C@@H]1CN(c2nc3cc(F)ccc3n2Cc2ncc(Cl)cn2)CC[C@H]1O` [Example 206, (3R,4R)-3-amino-1-(1-((5-chloropyrimidin-2-yl)methyl)-5-fluoro-1H-benzo[d]imidazol-2-yl)piperidin-4-ol], the IC50 was determined as 12.3 nM.

For the molecule `N#Cc1ccc(Cn2c(N3CC[C@@H](O)[C@H](N)C3)nc3ccc(F)cc32)nc1` [Example 207, 6-((2-((3R,4R)-3-amino-4-hydroxypiperidin-1-yl)-6-fluoro-1H-benzo[d]imidazol-1-yl)methyl)nicotinonitrile], the IC50 amounted to 49.6 nM.

For `N#Cc1ccc(Cn2c(N3CC[C@@H](O)[C@H](N)C3)nc3cc(F)ccc32)nc1` [Example 208, 6-((2-((3R,4R)-3-amino-4-hydroxypiperidin-1-yl)-5-fluoro-1H-benzo[d]imidazol-1-yl)methyl)nicotinonitrile], the IC50 turned out to be 47.7 nM.

For `N[C@H]1CCCN(c2nc3ccccc3n2Cc2ccc(Cl)cn2)C1` [Example 209, (S)-1-(1-((5-chloropyridin-2-yl)methyl)-1H-benzo[d]imidazol-2-yl)piperidin-3-amine], the IC50 worked out at 3.87 nM.

For `N#Cc1ccc(Cn2c(N3CCC[C@H](N)C3)nc3ccccc32)cn1` [Example 210, (S)-5-((2-(3-aminopiperidin-1-yl)-1H-benzo[d]imidazol-1-yl)methyl)picolinonitrile], the IC50 was 69.1 nM.

Turning to `N[C@@H]1CN(c2nc3ccccc3n2Cc2ccc(Cl)cn2)CC[C@H]1F` [Example 211, (3R,4R)-1-(1-((5-chloropyridin-2-yl)methyl)-1H-benzo[d]imidazol-2-yl)-4-fluoropiperidin-3-amine hydrochloride], the IC50 amounted to 1.09 nM.

As for `N#Cc1ccc(Cn2c(N3CCC(F)(F)[C@H](N)C3)nc3ccccc32)nc1` [Example 212, (R)-6-((2-(3-amino-4,4-difluoropiperidin-1-yl)-1H-benzo[d]imidazol-1-yl)methyl)nicotinonitrile hydrochloride], the IC50 worked out at 3.5 nM.

Take `C[C@H](c1ccc(Cl)cn1)n1c(N2CC[C@@H](F)[C@H](N)C2)nc2ccccc21` [Example 215, (3R,4R)-1-(1-((R)-1-(5-chloropyridin-2-yl)ethyl)-1H-benzo[d]imidazol-2-yl)-4-fluoropiperidin-3-amine hydrochloride]: the IC50 came out at 593 nM.

As for `C[C@@H](c1ccc(Cl)cn1)n1c(N2CC[C@@H](F)[C@H](N)C2)nc2ccccc21` [Example 216, (3R,4R)-1-(1-((S)-1-(5-chloropyridin-2-yl)ethyl)-1H-benzo[d]imidazol-2-yl)-4-fluoropiperidin-3-amine hydrochloride], the IC50 turned out to be 11.4 nM.

On to `C[C@H](c1ccc(Cl)cn1)n1c(N2CC[C@@H](F)[C@H](N)C2)nc2cc(F)c(F)cc21` [Example 217, (3R,4R)-1-(1-((R)-1-(5-chloropyridin-2-yl)ethyl)-5,6-difluoro-1H-benzo[d]imidazol-2-yl)-4-fluoropiperidin-3-amine hydrochloride], for which the IC50 came out at 68.7 nM.

Take `C[C@@H](c1ccc(Cl)cn1)n1c(N2CC[C@@H](F)[C@H](N)C2)nc2cc(F)c(F)cc21` [Example 218, (3R,4R)-1-(1-((S)-1-(5-chloropyridin-2-yl)ethyl)-5,6-difluoro-1H-benzo[d]imidazol-2-yl)-4-fluoropiperidin-3-amine hydrochloride]: the IC50 was determined as 0.82 nM.

Turning to `C[C@H](c1ccc(Cl)cn1)n1c(N2CC[C@@H](F)[C@H](N)C2)nc2cc(Cl)ccc21` [Example 219, (3R,4R)-1-(5-chloro-1-((R)-1-(5-chloropyridin-2-yl)ethyl)-1H-benzo[d]imidazol-2-yl)-4-fluoropiperidin-3-amine hydrochloride], the IC50 came out at 15.9 nM.

Turning to `C[C@@H](c1ccc(Cl)cn1)n1c(N2CC[C@@H](F)[C@H](N)C2)nc2cc(Cl)ccc21` [Example 220, (3R,4R)-1-(5-chloro-1-((S)-1-(5-chloropyridin-2-yl)ethyl)-1H-benzo[d]imidazol-2-yl)-4-fluoropiperidin-3-amine hydrochloride], the IC50 was 0.986 nM.

For `C[C@H](c1ccc(Cl)cn1)n1c(N2CC[C@@H](F)[C@H](N)C2)nc2ccc(Cl)cc21` [Example 221, (3R,4R)-1-(6-chloro-1-((R)-1-(5-chloropyridin-2-yl)ethyl)-1H-benzo[d]imidazol-2-yl)-4-fluoropiperidin-3-amine hydrochloride], the IC50 amounted to 54.9 nM.

As to `C[C@@H](c1ccc(Cl)cn1)n1c(N2CC[C@@H](F)[C@H](N)C2)nc2ccc(Cl)cc21` [Example 222, (3R,4R)-1-(6-chloro-1-((S)-1-(5-chloropyridin-2-yl)ethyl)-1H-benzo[d]imidazol-2-yl)-4-fluoropiperidin-3-amine hydrochloride], the IC50 stood at 2.04 nM.
